# System: GDF8 signaling (p-SMAD-3 (Ser423/425))
# Assay: AlphaScreen SureFire SMAD3 (p-Ser423/425) assay, GDF8-stimulated cells (GDF pSMAD)
# Format: cell-based
# Conditions: Mus musculus, MPC-11, MPC11; GDF8-stimulated; p-SMAD3 AlphaScreen; read-out: GDF pSMAD (MPC11) (inhibition of GDF8 signaling)
row,SMILES,IC50
1,"Cc1cc(-c2ncccc2-c2ccc3c(cnn3C(=O)NCCN3CCCC3)c2)ccc1F [compound 636, 5-(2-(4-Fluoro-3-methylphenyl)pyridin-3-yl)-N-(2-(pyrrolidin-1-yl)ethyl)-1H-indazole-1-carboxamide]",8.69 µM
2,"Cc1cc(-c2ncccc2-c2ccc3c(cnn3C(=O)NCCN)c2)ccc1F [compound 639, N-(2-Aminoethyl)-5-(2-(4-fluoro-3-methylphenyl)pyridin-3-yl)-1H-indazole-1-carboxamide]",10.6 µM
3,"Cc1cc(-c2ncccc2-c2ccc3c(cnn3C(=O)NCCCN)c2)ccc1F [compound 640, N-(3-Aminopropyl)-5-(2-(4-fluoro-3-methylphenyl)pyridin-3-yl)-1H-indazole-1-carboxamide]",19.2 µM
4,"Cc1cc(-c2ncccc2-c2ccc3ncc(C(=O)NCC4CCN(C)CC4)n3c2)ccc1F [compound 651, 6-(2-(4-Fluoro-3-methylphenyl)pyridin-3-yl)-N-((1-methylpiperidin-4-yl)methyl)imidazo[1,2-a]pyridine-3-carboxamide]",1.18 µM
5,"Cc1cc(-c2ncccc2-c2ccc3ncc(C(=O)NC4CCNCC4)n3c2)ccc1F [compound 652, 6-(2-(4-Fluoro-3-methylphenyl)pyridin-3-yl)-N-(piperidin-4-yl)imidazo[1,2-a]pyridine-3-carboxamide]",3.78 µM
6,"Cc1cc(-c2ncccc2-c2ccc3ncc(C(=O)NCCCn4ccnc4)n3c2)ccc1F [compound 653, N-(3-(1H-Imidazol-1-yl)propyl)-6-(2-(4-fluoro-3-methylphenyl)pyridin-3-yl)imidazo[1,2-a]pyridine-3-carboxamide]",1.04 µM
7,"Cc1cc(-c2ncccc2-c2ccc3ncc(C(=O)Nc4ccncc4)n3c2)ccc1F [compound 654, 6-(2-(4-Fluoro-3-methylphenyl)pyridin-3-yl)-N-(pyridin-4-yl)imidazo[1,2-a]pyridine-3-carboxamide]",0.553 µM
8,"Cc1cc(-c2ncccc2-c2ccn3ncc(C(=O)NC4CCN(C)CC4)c3c2)ccc1F [compound 655, 5-(2-(4-Fluoro-3-methylphenyl)pyridin-3-yl)-N-(1-methylpiperidin-4-yl)pyrazolo[1,5-a]pyridine-3-carboxamide]",0.245 µM
9,"Cc1cc(-c2ncccc2-c2ccn3ncc(C(=O)NCC4CCN(C)CC4)c3c2)ccc1F [compound 656, 5-(2-(4-Fluoro-3-methylphenyl)pyridin-3-yl)-N-((1-methylpiperidin-4-yl)methyl)pyrazolo[1,5-a]pyridine-3-carboxamide]",0.55 µM
10,"Fc1ccccc1-c1ncccc1-c1ccc2ncsc2c1 [compound 657, 6-(2-(2-Fluorophenyl)pyridin-3-yl)benzo[d]thiazole]",3.49 µM
11,"Fc1cccc(-c2ncccc2-c2ccc3ncsc3c2)c1 [compound 658, 6-(2-(3-Fluorophenyl)pyridin-3-yl)benzo[d]thiazole]",1.5 µM
12,"Fc1ccc(-c2ncccc2-c2ccc3ncsc3c2)cc1 [compound 659, 6-(2-(4-Fluorophenyl)pyridin-3-yl)benzo[d]thiazole]",2.01 µM
13,"Fc1cc(F)cc(-c2ncccc2-c2ccc3ncsc3c2)c1 [compound 660, 6-(2-(3,5-Difluorophenyl)pyridin-3-yl)benzo[d]thiazole]",2.24 µM
14,"Fc1ccc(-c2ncccc2-c2ccc3ncsc3c2)cc1F [compound 661, 6-(2-(3,4-Difluorophenyl)pyridin-3-yl)benzo[d]thiazole]",1.84 µM
15,"Fc1cccc(-c2ncccc2-c2ccc3ncsc3c2)c1F [compound 662, 6-(2-(2,3-Difluorophenyl)pyridin-3-yl)benzo[d]thiazole]",9.64 µM
16,"Cc1cc(-c2ncccc2-c2ccn3ncc(C(=O)N[C@@H]4CCCC[C@H]4N)c3c2)ccc1F [compound 663, N-((1R,2R)-2-Aminocyclohexyl)-5-(2-(4-fluoro-3-methylphenyl)pyridin-3-yl)pyrazolo[1,5-a]pyridine-3-carboxamide]",8.09 µM
17,"Cc1cc(-c2ncccc2-c2ccn3ncc(C(=O)N[C@H]4CCCC[C@@H]4N)c3c2)ccc1F [compound 664, N-((1S,2S)-2-Aminocyclohexyl)-5-(2-(4-fluoro-3-methylphenyl)pyridin-3-yl)pyrazolo[1,5-a]pyridine-3-carboxamide]",1.38 µM
18,"Fc1ccc(-c2ncccc2-c2ccc3ncsc3c2)c(F)c1 [compound 665, 6-(2-(2,4-Difluorophenyl)pyridin-3-yl)benzo[d]thiazole]",2.36 µM
19,"Fc1cc(-c2ncccc2-c2ccc3ncsc3c2)cc(F)c1F [compound 666, 6-(2-(3,4,5-Trifluorophenyl)pyridin-3-yl)benzo[d]thiazole]",3.97 µM
20,"Cc1ccc(F)c(-c2ncccc2-c2ccc3ncsc3c2)c1 [compound 667, 6-(2-(2-Fluoro-5-methylphenyl)pyridin-3-yl)benzo[d]thiazole]",0.226 µM
21,"Clc1cccc(-c2ncccc2-c2ccc3ncsc3c2)c1 [compound 668, 6-(2-(3-Chlorophenyl)pyridin-3-yl)benzo[d]thiazole]",0.313 µM

row,SMILES,IC50
1,"COc1cccc(-c2ncccc2-c2ccc3ncsc3c2)c1 [compound 669, 6-(2-(3-Methoxyphenyl)pyridin-3-yl)benzo[d]thiazole]",0.499 µM
2,"N#Cc1cccc(-c2ncccc2-c2ccc3ncsc3c2)c1 [compound 670, 3-(3-(Benzo[d]thiazol-6-yl)pyridin-2-yl)benzonitrile]",0.367 µM
3,"Cc1cc(-c2ncccc2-c2ccn3ncc(C(=O)NCCCN4CCOCC4)c3c2)ccc1F [compound 672, 5-(2-(4-Fluoro-3-methylphenyl)pyridin-3-yl)-N-(3-morpholinopropyl)pyrazolo[1,5-a]pyridine-3-carboxamide]",0.273 µM
4,"Cc1cc(-c2ncccc2-c2ccn3ncc(C(=O)NCCN(C)C)c3c2)ccc1F [compound 673, N-(2-(Dimethylamino)ethyl)-5-(2-(4-fluoro-3-methylphenyl)pyridin-3-yl)pyrazolo[1,5-a]pyridine-3-carboxamide]",0.375 µM
5,"Cc1cc(-c2ncccc2-c2ccn3ncc(C(=O)NCCN4CCOCC4)c3c2)ccc1F [compound 674, 5-(2-(4-Fluoro-3-methylphenyl)pyridin-3-yl)-N-(2-morpholinoethyl)pyrazolo[1,5-a]pyridine-3-carboxamide]",0.211 µM
6,"Cc1cc(-c2ncccc2-c2ccn3ncc(C(=O)NCCCN4CCCC4)c3c2)ccc1F [compound 675, 5-(2-(4-Fluoro-3-methylphenyl)pyridin-3-yl)-N-(3-(pyrrolidin-1-yl)propyl)pyrazolo[1,5-a]pyridine-3-carboxamide]",0.227 µM
7,"Cc1cc(-c2ncccc2-c2ccn3ncc(C(=O)NCCCN4CCN(C)CC4)c3c2)ccc1F [compound 676, 5-(2-(4-Fluoro-3-methylphenyl)pyridin-3-yl)-N-(3-(4-methylpiperazin-1-yl)propyl)pyrazolo[1,5-a]pyridine-3-carboxamide]",0.267 µM
8,"CCOC(=O)c1cnn2ccc(-c3cccnc3-c3ccc(F)c(C)c3)cc12 [compound 677, Ethyl 5-(2-(4-Fluoro-3-methylphenyl)pyridin-3-yl)pyrazolo[1,5-a]pyridine-3-carboxylate]",0.562 µM
9,"Cc1cc(-c2ncccc2-c2ccn3ncc(C(=O)O)c3c2)ccc1F [compound 678, 5-(2-(4-Fluoro-3-methylphenyl)pyridin-3-yl)pyrazolo[1,5-a]pyridine-3-carboxylic acid]",2.47 µM
10,"Cc1cc(-c2ncccc2-c2ccc3ncc(C(=O)N[C@@H]4CCCC[C@H]4N)n3c2)ccc1F [compound 679, N-((1R,2R)-2-Aminocyclohexyl)-6-(2-(4-fluoro-3-methylphenyl)pyridin-3-yl)imidazo[1,2-a]pyridine-3-carboxamide]",10.8 µM
11,"Cc1cc(-c2ncccc2-c2ccc3ncc(C(=O)N[C@H]4CCCC[C@@H]4N)n3c2)ccc1F [compound 680, N-((1S,2S)-2-Aminocyclohexyl)-6-(2-(4-fluoro-3-methylphenyl)pyridin-3-yl)imidazo[1,2-a]pyridine-3-carboxamide]",2.13 µM
12,"Cc1cc(-c2ncccc2-c2ccc3ncc(C(=O)NCCN)n3c2)ccc1F [compound 681, N-(2-Aminoethyl)-6-(2-(4-fluoro-3-methylphenyl)pyridin-3-yl)imidazo[1,2-a]pyridine-3-carboxamide]",0.288 µM
13,"Cc1cc(-c2ncccc2-c2ccc3ncc(C(=O)NCCCN)n3c2)ccc1F [compound 682, N-(3-Aminopropyl)-6-(2-(4-fluoro-3-methylphenyl)pyridin-3-yl)imidazo[1,2-a]pyridine-3-carboxamide]",0.539 µM
14,"Cc1cc(-c2ncccc2-c2ccn3ncc(C(=O)NCCN)c3c2)ccc1F [compound 683, N-(2-Aminoethyl)-5-(2-(4-fluoro-3-methylphenyl)pyridin-3-yl)pyrazolo[1,5-a]pyridine-3-carboxamide]",0.234 µM
15,"Cc1cc(-c2ncccc2-c2ccn3ncc(C(=O)NCCCN)c3c2)ccc1F [compound 684, N-(3-Aminopropyl)-5-(2-(4-fluoro-3-methylphenyl)pyridin-3-yl)pyrazolo[1,5-a]pyridine-3-carboxamide]",0.593 µM
16,"COC(=O)c1cnc2ccc(-c3cccnc3-c3ccc(F)c(C)c3)cn12 [compound 685, Methyl 6-(2-(4-fluoro-3-methylphenyl)pyridin-3-yl)imidazo[1,2-a]pyridine-3-carboxylate]",0.15 µM
17,"Fc1ccc(-c2ncccc2-c2ccc3ncsc3c2)cc1Cl [compound 686, 6-(2-(3-Chloro-4-fluorophenyl)pyridin-3-yl)benzo[d]thiazole]",0.205 µM
18,"Fc1ccc(-c2ncccc2-c2ccc3nccn3c2)cc1Cl [compound 687, 6-(2-(3-Chloro-4-fluorophenyl)pyridin-3-yl)imidazo[1,2-a]pyridine]",0.172 µM
19,"Fc1ccc(-c2ncccc2-c2ccc3ncccc3c2)cc1Cl [compound 688, 6-(2-(3-Chloro-4-fluorophenyl)pyridin-3-yl)quinoline]",1.26 µM
20,"N#Cc1cnc2ccc(-c3cccnc3-c3ccc(F)c(Cl)c3)cn12 [compound 689, 6-(2-(3-Chloro-4-fluorophenyl)pyridin-3-yl)imidazo[1,2-a]pyridine-3-carbonitrile]",0.516 µM

# — patent US10858335B2 (Rigel Pharmaceuticals, Inc., priority 2014, dated 2020)
